Results on six molecules are retold here after patent publication US8097643B2, “Indol-4 sulfonamide derivatives, their preparation and their use 5-ht-6 as modulators” (Laboratorios del Dr. Esteve S. A., priority 2003, dated 2012).

For orientation: melting point means the temperature of the solid-liquid transition. A word on the inhibition: it is the relative decrease from the control value, in per cent.

The target in data set [1] is T1, recombinant human 5HT6 receptor (Homo sapiens, UniProt P50406).
T1 construct: purchased Receptor Biology; host or cells: HEK-293 cell membranes
Briefly: Binding to the 5HT6 serotonin receptor ([3H]-LSD radioligand). Particulars: 10^−6 M compound; [3H]-LSD 2.7 nM; HEK-293 cell membranes. How it is done: Binding to the 5Ht6 Serotonin Receptor
HEK-293 cell membranes expressing the recombinant human 5HT6 receptor were supplied by Receptor Biology. […] Incubation ends by quick filtration in a Harvester Brandel Cell through fiberglass filters of the Schleicher & Schuell GF 3362 trademark, pretreated with a 0.5% polyethyleneimine solution. […] The vials are left to equilibrate for several hours prior to their counting in a 1414 Wallac Winspectral scintillation counter. […] The assays are carried out in triplicate. The inhibition constants (Ki, nM) are calculated by non-linear regression analysis using the EBDA/LIGAND program [Munson and Rodbard, Analytical Biochemistry, 1980, 107, 220].
Binding of the new compounds of general formula (Ia and Ib and Ic) to the 5-HT6 receptor was determined as previously described.

T1 sequence (P50406 whole entry): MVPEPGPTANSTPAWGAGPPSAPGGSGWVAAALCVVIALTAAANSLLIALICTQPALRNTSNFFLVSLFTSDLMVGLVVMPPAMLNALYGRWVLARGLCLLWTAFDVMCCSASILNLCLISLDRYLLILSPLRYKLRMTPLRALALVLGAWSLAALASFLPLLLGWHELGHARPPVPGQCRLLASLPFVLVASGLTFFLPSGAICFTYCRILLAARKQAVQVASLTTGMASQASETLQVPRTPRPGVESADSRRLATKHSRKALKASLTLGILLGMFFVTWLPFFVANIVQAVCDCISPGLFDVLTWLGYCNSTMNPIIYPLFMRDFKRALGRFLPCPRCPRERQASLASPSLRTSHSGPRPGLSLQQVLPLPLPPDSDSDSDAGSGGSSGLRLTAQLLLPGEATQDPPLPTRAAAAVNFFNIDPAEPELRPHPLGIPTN

`Cc1c(S(=O)(=O)Nc2cccc3c2ccn3CCN(C)C)sc2ccc(Cl)cc12` [Example 1, N-[1-(2-dimethylaminoethyl)-1H-indole-4-yl]-5-chloro-3-methyl-benzo[b]thiophene-2-sulfonamide] registered a melting point of 78 to 80 °C.
Same read-out and setting: under `CN(C)CCn1ccc2c(NS(=O)(=O)c3ccc(-c4ccccc4)cc3)cccc21` [Example 4, N-[1-(2-dimethylaminoethyl)-1H-indole-4-yl]-4phenylbenzenesulfonamide] stands 137 to 140 °C.
Still for that read-out and setting: under `CN(C)CCn1ccc2c(NS(=O)(=O)CCc3cccc4ccccc34)cccc21` [Example 5, N-[1-(2-dimethylaminoethyl)-1H-indole-4-yl]-2-(naphthalene-1-yl)-ethanesulfonamide] stands 47 to 54 °C.
For `CN(C)CCn1ccc2c(NS(=O)(=O)c3cc(Cl)cc(Cl)c3)cccc21` [Example 7, N-[1-(2-dimethylaminoethyl)-1H-indole-4-yl]-3,5-dichlorobenzenesulfonamide], the melting point fell in the range of 113 to 118 °C. Moreover, the inhibition at 1 µM in data set [1] is 72.3%.
With “N-[1-(2-dimethylaminoethyl)-1H-indole-4-yl]-naphtalene-1-sulfonamide [Example 3]”, the “% Inhibition 10^−6 M” value in data set [1] was found to be 94.8%.
The same measure, in the same setting: under “N-[1-(2-dimethylaminoethyl)-1H-indole-4-yl]-naphtalene-2-sulfonamide [Example 2]” stands 104.3%.
